# According to PMC4729198 (ACS chemical biology, 2015):
# Like-named read-outs stand apart in the source and are kept apart here.
# Experiments:
# LUM assay counterscreen = assay type: biochemical; conditions: LOPAC pilot screen, dose-response
# MtbAPSR [1] = biological target: T1, MtbAPSR (Mycobacterium tuberculosis, UniProt P9WIK3); assay: biochemical; design: species or system M. tuberculosis
# MtbAPSR [2] = biological target: T1, MtbAPSR; assay: biochemical; assay type: binding, M. tuberculosis
# [3] = test system: Non replicating WT Mtb H37Rv; assay: Bactericidal activity against nonreplicating; assay type: cell-based; conditions: Mycobacterium tuberculosis
# [4] = test system: Non replicating Msm mc2:155 ΔcysH; assay type: cell-based, Mycobacterium smegmatis; conditions: 2 mM methionine; Alamar Blue assay
# VERO cells = assay: Cytotoxicity in VERO cells; assay type: cell-based
# [5] = HRP-PR H2O2 detection counterscreen for redox-cycling compounds; assay type: biochemical; conditions: 0.8 mM DTT
# RecA = conditions: qRT-PCR, normalized to housekeeping gene SigA
# T1 sequence (P9WIK3 whole entry): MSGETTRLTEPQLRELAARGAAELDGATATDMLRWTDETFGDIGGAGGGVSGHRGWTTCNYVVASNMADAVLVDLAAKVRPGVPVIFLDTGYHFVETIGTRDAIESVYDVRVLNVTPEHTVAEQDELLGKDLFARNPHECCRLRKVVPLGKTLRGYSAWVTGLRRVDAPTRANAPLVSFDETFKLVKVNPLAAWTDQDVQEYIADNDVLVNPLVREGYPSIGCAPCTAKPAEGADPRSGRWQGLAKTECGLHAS
compound,measurement,setting,value
"CSc1nc(N)c2ncn([C@@H]3O[C@H](COP(=O)(O)OP(=O)(O)O)[C@@H](O)[C@H]3O)c2n1.[Na].[Na].[Na] [2-Thiomethyladenoside diphosphate trisodium, reference compound]",activity in LUM counterscreen,LUM assay counterscreen,active
same,activity in LUM assay,MtbAPSR [1],active
"Cc1c2ccncc2c(C)c2c1[nH]c1ccccc12 [Compound 5, ellipticine]",Kd,MtbAPSR [2],12 µM
same,MBC,"[3]; read-out: Non replicating WT Mtb H37Rv, (+) Met",12.5 µM
same,MBC,"[3]; read-out: Non replicating WT Mtb H37Rv, (−) Met",12.5 µM
same,activity in LUM counterscreen,LUM assay counterscreen,inactive
same,IC50,"MtbAPSR [1]; LUM Assay, IC50, dose-response LUM assay, Table 1",4.2 µM
same,IC50,"MtbAPSR [1]; apparent IC50 in LUM assay, LOPAC pilot screen hit, dose-response, 384-well",11.1 µM
same,"Non replicating Msm mc2:155; MBC, ΔcysH",[4],>100 µM
same,lethal concentration (LC90) in VERO cells,VERO cells,63 µM
same,cytotoxicity fold lower compared to bactericidal activity against nonreplicating Mtb,VERO cells; VERO LC90 vs MBC,~ 5 fold
O=C1C(SCCO)=C(SCCO)C(=O)c2ccccc21 [NSC 95397],generation of H2O2 in HRP-PR assay,[5],showed generation of H2O2
CO[C@@]12[C@H](COC(N)=O)C3=C(C(=O)C(C)=C(N)C3=O)N1C[C@@H]1N[C@@H]12 [mitomycin C],upregulation of RecA,RecA,significant upregulation
"Cl.N[C@@H](CCl)C(=O)O [β-Chloro-L-alanine hydrochloride, reference compound]",activity in LUM counterscreen,LUM assay counterscreen,no activity
same,activity in LUM assay,"MtbAPSR [1]; LOPAC pilot screen, dose-response",no activity
